Results from the OligoGym collection.
Several values for one entry are separate records, joined by “and”; a condition that tells them apart may be missing. Identical values can stand only once. After the bases stand the sugars from the 5' end (letter, count) and the backbone: PS all phosphorothioate, else s phosphorothioate and o phosphodiester by linkage. Methylation of C is not given here. e = 2'-O-(2-methoxyethyl) (MOE); k = constrained ethyl (cEt); d = 2'-deoxy (DNA)

Target: APOL1
Conditions: ASO

| Sequence | target mRNA inhibition (A431, 0.0156 µM) | target mRNA inhibition (A431, 0.0625 µM) | target mRNA inhibition (A431, 0.25 µM) | target mRNA inhibition (A431, 1 µM) | target mRNA inhibition (A431, 2 µM) | target mRNA inhibition (A431, 0.04 µM) |
| --- | --- | --- | --- | --- | --- | --- |
| CGCAATGCTGACTTGG (sugars kkdddddkekeddddd, PS) | 11% | 44% | 80% | 93% | 96% | – |
| AGCTTTAAACTCAGGT (sugars k2 d4 e3 k2 d5, PS) | – | – | – | – | 93% | – |
| TATTTCTTGATGTGGT (sugars kkddddkekekddddd, PS) | 44% | 77% | 92% | 96% | 97% | – |
| GCAGTTTTGTAAGTGC (sugars k3 d4 k3 e1 d5, PS) | – | – | – | – | 76% | – |
| TTTGTAAGTGCAACCA (sugars k3 d5 k3 d5, PS) | – | – | – | – | 98% | – |
| TTTTGTAAGTGCAACC (sugars k4 d9 k3, PS) | – | 47% | 84% | 95% | – | – |
| GATTCTGTGTGCTCAC (sugars k4 d9 k3, PS) | – | 46% | 72% | 87% | – | – |
| AGTATTGTTTTTGTGG (sugars kkddddekekeddddd, PS) | – | – | – | – | 89% | – |
| TGTTATATTTGATCCT (sugars kkddddkdkdkddddd, PS) | – | – | – | – | 86% | – |
| CAACACATCATTGGGT (sugars kkddddekekeddddd, PS) | – | – | – | – | 80% | – |
| GTATTTCTTGATGTGG (sugars kkdddddkekeddddd, PS) | 59% | 89% | 97% | 98% and 99% | 98% | 64% |
| CTGTTCTAACTCTTGG (sugars kkddddekekeddddd, PS) | 43% | 64% | 83% | 92% | 97% | – |
| GTATTTCTTGATGTGG (sugars kekddddeekkddddd, PS) | – | – | – | 99% | 99% | 70% |
| GAGTATTGTTTTTGTG (sugars k3 d4 k3 e1 d5, PS) | – | – | – | – | 88% | – |
| CACATCATTGGGTTAT (sugars kkddddkekekkdddd, PS) | – | – | – | – | 34% | – |
| TCTATTAGAGGGCTAG (sugars kkddddkdkdkddddd, PS) | – | – | – | – | 68% | – |
| CTCATTATCAGTCAGC (sugars k4 d9 k3, PS) | – | 57% | 65% | 64% | – | – |
| GTTATATTTGATCCTC (sugars kkddddkekekddddd, PS) | – | – | – | – | 80% | – |
| GAAGATTGGCTCTGGC (sugars kkddddkekekkdddd, PS) | – | – | – | – | 10% | – |
| ATCAGATGGGTACTTC (sugars kkddddkdkdkddddd, PS) | – | – | – | – | 78% | – |
| CTATTAGAGGGCTAGT (sugars kddddkekekeddddd, PS) | – | – | – | – | 34% | – |
| ATTCTCATGGTACAGG (sugars k3 d5 k3 d5, PS) | – | – | – | – | 97% | – |
| CGTGTTATATTTGATC (sugars kkddddekekeddddd, PS) | – | – | – | – | 76% | – |
| GAGTCATTTGCTAGGT (sugars k4 d9 k3, PS) | – | 78% | 89% | 92% | – | – |
| AAGCTTTAAACTCAGG (sugars kkkddddkekekdddd, PS) | – | – | – | – | 16% | – |
| ATTCAGAATTTCCACT (sugars kkddddkdkdkddddd, PS) | – | – | – | – | 79% | – |

| Sequence | target mRNA inhibition (A431, 0.0156 µM) | target mRNA inhibition (A431, 0.0625 µM) | target mRNA inhibition (A431, 0.25 µM) | target mRNA inhibition (A431, 1 µM) | target mRNA inhibition (A431, 2 µM) | target mRNA inhibition (A431, 0.04 µM) |
| --- | --- | --- | --- | --- | --- | --- |
| GAACGCAATGCTGACT (sugars k2 d4 e3 k2 d5, PS) | 20% | 42% | 77% | 92% | 95% | – |
| ACGCAATGCTGACTTG (sugars kkkddddkekeddddd, PS) | – | – | – | – | 87% | – |
| AGCTTTAAACTCAGGT (sugars kkddddkdkdkddddd, PS) | – | – | – | – | 86% | – |
| AGTATTGTTTTTGTGG (sugars kkddddkdkdkddddd, PS) | – | – | – | – | 72% | – |
| AGTATTGCCAGCTAAG (sugars k2 d4 e3 k2 d5, PS) | – | – | – | – | 86% | – |
| CTTTATACCAGTGTCT (sugars k3 d10 k3, PS) | – | 30% | 65% | 88% | – | – |
| AGCTTTAAACTCAGGT (sugars kdddddkekekddddd, PS) | 14% | 46% | 80% | 92% | 95% | – |
| GTATTTCTTGATGTGG (sugars k3 d5 k3 d5, PS) | – | – | 95% and 98% and 99% | 97% and 99% and 100% | 99% and 100% | – |
| AAGATTGGCTCTGGCT (sugars k2 d4 e3 k2 d5, PS) | – | – | – | – | 63% | – |
| TCTATTAGAGGGCTAG (sugars kkddddkekekkdddd, PS) | – | – | – | – | 25% | – |
| TCCGTCAATATATTCT (sugars k3 d10 k3, PS) | – | 83% | 96% | 98% | – | – |
| AAGGTTGTCCAGAGCT (sugars k4 d9 k3, PS) | – | 28% | 27% | 65% | – | – |
| GTTATGAAATTATTGG (sugars kdddddkekekddddd, PS) | – | – | – | – | 73% | – |
| TTCTCATGGTACAGGA (sugars k3 d4 k3 e1 d5, PS) | – | – | – | – | 44% | – |
| GTAGAATGAGCAGGTC (sugars k4 d9 k3, PS) | – | 84% | 97% | 99% | – | – |
| CTAATTTTCTGACTGT (sugars kkddddkekekkdddd, PS) | – | – | – | – | 71% | – |
| GAGTATTGTTTTTGTG (sugars kkkddddkekeddddd, PS) | – | – | – | – | 81% | – |
| GCTAATTTTCTGACTG (sugars kdddddkekekddddd, PS) | – | – | – | – | 98% | – |
| CTTTATACCAGTGTCT (sugars kkddddkdkdkddddd, PS) | – | – | – | – | 92% | – |
| CAGATGTGTTTAGGCA (sugars k4 d9 k3, PS) | – | 78% | 93% | 96% | – | – |
| TTGTAAGTGCAACCAA (sugars k3 d4 k3 e1 d5, PS) | – | – | – | – | 78% | – |
| ACCCTCTTTATCCCCC (sugars k4 d9 k3, PS) | – | 53% and 39% | 82% and 65% | 92% and 81% | – | – |
| GTTATGAAATTATTGG (sugars kkddddekekeddddd, PS) | – | – | – | – | 68% | – |
| AGATGGGTACTTCTGT (sugars k4 d9 k3, PS) | – | 85% | 88% | 93% | – | – |
| TTCAGAATTTCCACTA (sugars kdddddkekekddddd, PS) | – | – | – | – | 87% | – |
| GTTCTAACTCTTGGGC (sugars kddddkekekeddddd, PS) | – | – | – | – | 77% | – |

| Sequence | target mRNA inhibition (A431, 0.0156 µM) | target mRNA inhibition (A431, 0.0625 µM) | target mRNA inhibition (A431, 0.25 µM) | target mRNA inhibition (A431, 1 µM) | target mRNA inhibition (A431, 2 µM) | target mRNA inhibition (A431, 0.04 µM) |
| --- | --- | --- | --- | --- | --- | --- |
| AAGTATTGCCAGCTAA (sugars kkddddekekeddddd, PS) | – | – | – | – | 49% | – |
| AGGGAAATGAACGCAA (sugars k4 d9 k3, PS) | – | 38% | 65% | 85% | – | – |
| TCATAGATACTCCTCA (sugars k3 d10 k3, PS) | 8% | 17% | 51% | 80% | – | – |
| AGCTTTAAACTCAGGT (sugars k3 d4 k3 e1 d5, PS) | – | – | – | – | 82% | – |
| ATTCTCATGGTACAGG (sugars kkkddddkekekdddd, PS) | – | – | – | – | 70% | – |
| TCATTAGTGCTATAGA (sugars k4 d9 k3, PS) | – | 25% | 71% | 86% | – | – |
| GGAATTATGGAATTGC (sugars kkkddddkdkdkdddd, PS) | – | – | – | – | 76% | – |
| AAGTATTGCCAGCTAA (sugars kekddddeekkddddd, PS) | – | – | – | – | 88% | – |
| AATATCAGAGTGTACC (sugars k4 d9 k3, PS) | – | 51% | 73% | 84% | – | – |
| ATTCTATTGGGCCTCA (sugars k4 d9 k3, PS) | – | 28% | 62% | 86% | – | – |
| ATTCTATTAGAGGGCT (sugars kkddddkekekddddd, PS) | – | – | – | – | 46% | – |
| CCTTATGCTTACTCCA (sugars k4 d9 k3, PS) | – | 68% | 82% | 93% | – | – |
| TGTTATATTTGATCCT (sugars kkdddddkekeddddd, PS) | 33% | 59% | 81% | 92% | 92% | 50% |
| CAGTCAGCAGGAGTAG (sugars k4 d9 k3, PS) | – | 30% | 54% | 65% | – | – |
| ACGCAATGCTGACTTG (sugars kkkddddkekekdddd, PS) | – | – | – | – | 71% | – |
| TTATATTTGATCCTCA (sugars kkddddkdkdkddddd, PS) | 15% | 44% | 76% | 93% | 96% | – |
| GCTAATTTTCTGACTG (sugars k3 d4 k3 e1 d5, PS) | 2% | 46% | 76% | 87% | 92% | – |
| TACTTCTGTTAGATAC (sugars k4 d9 k3, PS) | – | 47% | 76% | 92% | – | – |
| TTTATACCAGTGTCTT (sugars k2 d4 e4 k2 d4, PS) | – | – | – | – | 89% | – |
| AAGATTGGCTCTGGCT (sugars kkddddkekekddddd, PS) | – | – | – | – | 37% | – |
| CTGAAGATTGGCTCTG (sugars kkkddddkekekdddd, PS) | – | – | – | – | 36% | – |
| TCCGTCAATATATTCT (sugars kkddddkekekddddd, PS) | – | – | – | – | 94% | – |
| TTATTGCAGGCTCCAA (sugars k4 d9 k3, PS) | – | 39% | 47% | 76% | – | – |
| GGAAATGAACGCAATG (sugars k4 d9 k3, PS) | – | 37% | 71% | 87% | – | – |
